Measurements taken from patent publication US4282236A, “β-Lactam antibacterial agents, their use in pharmaceutical compositions, and intermediates” (Beecham Group Limited, priority 1979, dated 1981).

Legend:
Format in all cases: cell-based
Proteus vulgaris W091 = assay: MIC, DST agar + 10% horse blood; conditions: read-out: minimum inhibitory concentration (MIC)
Method: (§1) The penem ester (21) (30 mg) was dissolved in a mixture of dioxane (4 ml) and water (1 ml) and hydrogenated over 5% palladium on charcoal catalyst (45 mg) for one hour. A further amount of catalyst (30 mg) was added and the hydrogenation was continued for a further one and a half hours. A 1% solution of sodium bicarbonate (0.6 ml) was added and the mixture filtered through Kieselguhr. The mixture was evaporated to low volume, water (10 ml) was added, and the aqueous solution washed with a little ethyl acetate. Evaporation of the aqueous phase afforded the sodium salt (22) (17 mg) as an amorphous solid. λmax. (EtOH) 364 n.m.
(§2) 1. DST agar + 10% horse blood
(§3) lution for G.div.ve bacteria or
(§4) Minimum Inhibitory Concentrations are expressed in microgrammes per ml.

Pseudomonas aeruginosa A [1] = assay: MIC, DST agar + 10% horse blood; conditions: read-out: minimum inhibitory concentration (MIC)
Method: as §1, §2, §3, §4

Enterobacter cloacae N1 = assay: MIC, DST agar + 10% horse blood; conditions: read-out: minimum inhibitory concentration (MIC)
Method: as §1, §2, §3, §4

Escherichia coli 0111 [2] = assay: MIC, DST agar + 10% horse blood; conditions: read-out: minimum inhibitory concentration (MIC)
Method: as §1, §2, §3, §4

Proteus rettgeri WM16 = assay: MIC, DST agar + 10% horse blood; conditions: Providencia rettgeri, read-out: minimum inhibitory concentration (MIC)
Method: as §1, §2, §3, §4

[3] = tested on: Streptococcus pyogenes CN10; assay: MIC, DST agar + 10% horse blood; conditions: read-out: minimum inhibitory concentration (MIC)
Method: as §1, §2, §3, §4

Shigella sonnei MB 11967 = assay: MIC, DST agar + 10% horse blood; conditions: MB11967, read-out: minimum inhibitory concentration (MIC)
Method: as §1, §2, §3, §4

Proteus mirabilis C977 [4] = assay: MIC, DST agar + 10% horse blood; conditions: read-out: minimum inhibitory concentration (MIC)
Method: as §1, §2, §3, §4

Bacillus subtilis A = assay: MIC, DST agar + 10% horse blood; conditions: read-out: minimum inhibitory concentration (MIC)
Method: as §1, §2, §3, §4

[5] = tested on: Salmonella typhimurium CT10; assay: MIC, DST agar + 10% horse blood; conditions: Salmonella enterica, read-out: minimum inhibitory concentration (MIC)
Method: as §1, §2, §3, §4

Proteus morganii I580 = assay: MIC, DST agar + 10% horse blood; conditions: Morganella morganii, read-out: minimum inhibitory concentration (MIC)
Method: as §1, §2, §3, §4

[6] = tested on: Streptococcus pneumoniae CN33; assay: MIC, DST agar + 10% horse blood; conditions: read-out: minimum inhibitory concentration (MIC)
Method: as §1, §2, §3, §4

E. coli ESS = assay: MIC, DST agar + 10% horse blood; conditions: Escherichia coli, read-out: minimum inhibitory concentration (MIC)
Method: as §1, §2, §3, §4

Klebsiella aerogenes A [7] = assay: MIC, DST agar + 10% horse blood; conditions: read-out: minimum inhibitory concentration (MIC)
Method: as §1, §2, §3, §4

[8] = tested on: Staphylococcus aureus 1517; assay: MIC, DST agar + 10% horse blood; conditions: read-out: minimum inhibitory concentration (MIC)
Method: as §1, §2, §3, §4

Serratia marcescens US20 = assay: MIC, DST agar + 10% horse blood; conditions: read-out: minimum inhibitory concentration (MIC)
Method: as §1, §2, §3, §4

[9] = tested on: Staphylococcus aureus Oxford; assay: MIC, DST agar + 10% horse blood; conditions: read-out: minimum inhibitory concentration (MIC)
Method: as §1, §2, §3, §4

Escherichia coli JT 39 [10] = assay: MIC, DST agar + 10% horse blood; conditions: JT39, read-out: minimum inhibitory concentration (MIC)
Method: as §1, §2, §3, §4

[11] = tested on: Staphylococcus aureus Russell; assay: MIC, DST agar + 10% horse blood; conditions: read-out: minimum inhibitory concentration (MIC)
Method: as §1, §2, §3, §4

Citrobacter freundii E8 = assay: MIC, DST agar + 10% horse blood; conditions: read-out: minimum inhibitory concentration (MIC)
Method: as §1, §2, §3, §4

Pseudomonas aeruginosa A [12] = assay: MIC, microtitre using nutrient broth; conditions: read-out: minimum inhibitory concentration (MIC)
Method: as §1
(§5) 2. Microtitre using nutrient
as §3
(§6) broth a 10^- 4 dilution for G-ve
as §4

Escherichia coli 0111 [13] = assay: MIC, microtitre using nutrient broth; conditions: read-out: minimum inhibitory concentration (MIC)
Method: as §1, §5, §3, §6, §4

Proteus mirabilis C977 [14] = assay: MIC, microtitre using nutrient broth; conditions: read-out: minimum inhibitory concentration (MIC)
Method: as §1, §5, §3, §6, §4

[15] = tested on: Salmonella typhimurium CT10; assay: MIC, microtitre using nutrient broth; conditions: Salmonella enterica, read-out: minimum inhibitory concentration (MIC)
Method: as §1, §5, §3, §6, §4

Klebsiella aerogenes A [16] = assay: MIC, microtitre using nutrient broth; conditions: read-out: minimum inhibitory concentration (MIC)
Method: as §1, §5, §3, §6, §4

[17] = tested on: Staphylococcus aureus Oxford; assay: MIC, microtitre using nutrient broth; conditions: read-out: minimum inhibitory concentration (MIC)
Method: as §1, §5, §3, §6, §4

Escherichia coli JT 39 [18] = assay: MIC, microtitre using nutrient broth; conditions: JT39, read-out: minimum inhibitory concentration (MIC)
Method: as §1, §5, §3, §6, §4

[19] = tested on: Staphylococcus aureus Russell; assay: MIC, microtitre using nutrient broth; conditions: read-out: minimum inhibitory concentration (MIC)
Method: as §1, §5, §3, §6, §4

With `COC(=O)/C=C/C1=C(C(=O)O)N2C(=O)C[C@H]2S1` [compound 22, Sodium 2-(trans-2-Carbomethoxy-vinyl) penem-3-carboxylate] as the compound, how does the MIC (Proteus vulgaris W091) read?
The MIC was 50 µg/mL.

And the MIC (Pseudomonas aeruginosa A [1])?
The MIC was greater than 100 µg/mL.

What about the MIC (Enterobacter cloacae N1) of the same compound?
The MIC was 50 µg/mL.

What about the MIC (Escherichia coli 0111 [2]) of the same compound?
Its MIC is 25 µg/mL.

And the MIC (Proteus rettgeri WM16)?
The MIC was 50 µg/mL.

And the MIC [3]?
Its MIC is 2.5 µg/mL.

What about the MIC (Shigella sonnei MB 11967) of the same compound?
The MIC was 100 µg/mL.

And the MIC (Proteus mirabilis C977 [4])?
Its MIC is 25 µg/mL.

What about the MIC (Bacillus subtilis A) of the same compound?
Its MIC is 5 µg/mL.

What about the MIC [5] of the same compound?
Its MIC is 50 µg/mL.

What about the MIC (Proteus morganii I580) of the same compound?
The MIC was 50 µg/mL.

What about the MIC [6] of the same compound?
Its MIC is 0.5 µg/mL.

What about the MIC (E. coli ESS) of the same compound?
Its MIC is 25 µg/mL.

What about the MIC (Klebsiella aerogenes A [7]) of the same compound?
The MIC was 25 µg/mL.

And the MIC [8]?
Its MIC is 50 µg/mL.

And the MIC (Serratia marcescens US20)?
The MIC was 50 µg/mL.

And the MIC [9]?
Its MIC is 5 µg/mL.

And the MIC (Escherichia coli JT 39 [10])?
Its MIC is 100 µg/mL.

What about the MIC [11] of the same compound?
The MIC was 10 µg/mL.

What about the MIC (Citrobacter freundii E8) of the same compound?
The MIC was 25 µg/mL.

And the MIC (Pseudomonas aeruginosa A [12])?
Its MIC is greater than 500 µg/mL.

What about the MIC (Escherichia coli 0111 [13]) of the same compound?
Its MIC is 62 µg/mL.

And the MIC (Proteus mirabilis C977 [14])?
The MIC was 125 µg/mL.

And the MIC [15]?
The MIC was 125 µg/mL.

What about the MIC (Klebsiella aerogenes A [16]) of the same compound?
Its MIC is 31 µg/mL.

And the MIC [17]?
Its MIC is 8 µg/mL.

And the MIC (Escherichia coli JT 39 [18])?
The MIC was 250 µg/mL.

And the MIC [19]?
Its MIC is 16 µg/mL.
